Assays:
saphenous artery = assay: Vasorelaxant effect in vitro (phenylephrine-contracted artery rings); set-up: species or system Rabbits; details: Oryctolagus cuniculus; concentration reducing phenylephrine-induced contraction of rabbit saphenous artery rings by 50%
Method: Rabbits are anesthetized and sacrificed by intravenous injection of thiopental sodium (about 50 mg/kg) and exsanguinated. The saphenous artery is removed and divided into rings 3 mm wide. The rings are mounted singly on in each case a pair of triangular hooks open at the end and made of 0.3 mm-thick special wire (Remanium®). Each ring is placed under an initial tension in 5 ml organ baths with Krebs-Henseleit solution which is at 37° C., is gassed with carbogen and has the following composition: NaCl 119 mM; KCl 4.8 mM; CaCl2×2 H2O 1 mM; MgSO4×7 H2O 1.4 mM; KH2PO4 1.2 mM; NaHCO3 25 mM; glucose 10 mM; bovine serum albumin 0.001%. The force of contraction is detected with Statham UC2 cells, amplified and digitized via A/D converters (DAS-1802 HC, Keithley Instruments, Munich) and recorded in parallel on chart recorders. Contractions are induced by addition of phenylephrine.
After several (generally 4) control cycles, the substance to be investigated is added in each further run in increasing dosage, and the level of the contraction achieved under the influence of the test substance is compared with the level of the contraction reached in the last preceding run. The concentration necessary to reduce the contraction reached in the preceding control by 50% is calculated from this (IC50). The standard application volume is 5 μl. The proportion of DMSO in the bath solution corresponds to 0.1%.

sGC = molecular target: T1, sGC (Rattus norvegicus, UniProt P20595); assay: sGC-activating activity in the CHO reporter cell in vitro; type: cell-based
T1 construct: expressed in transfected cells; host or cells: CHO reporter cell line
T1 sequence (P20595 1-619): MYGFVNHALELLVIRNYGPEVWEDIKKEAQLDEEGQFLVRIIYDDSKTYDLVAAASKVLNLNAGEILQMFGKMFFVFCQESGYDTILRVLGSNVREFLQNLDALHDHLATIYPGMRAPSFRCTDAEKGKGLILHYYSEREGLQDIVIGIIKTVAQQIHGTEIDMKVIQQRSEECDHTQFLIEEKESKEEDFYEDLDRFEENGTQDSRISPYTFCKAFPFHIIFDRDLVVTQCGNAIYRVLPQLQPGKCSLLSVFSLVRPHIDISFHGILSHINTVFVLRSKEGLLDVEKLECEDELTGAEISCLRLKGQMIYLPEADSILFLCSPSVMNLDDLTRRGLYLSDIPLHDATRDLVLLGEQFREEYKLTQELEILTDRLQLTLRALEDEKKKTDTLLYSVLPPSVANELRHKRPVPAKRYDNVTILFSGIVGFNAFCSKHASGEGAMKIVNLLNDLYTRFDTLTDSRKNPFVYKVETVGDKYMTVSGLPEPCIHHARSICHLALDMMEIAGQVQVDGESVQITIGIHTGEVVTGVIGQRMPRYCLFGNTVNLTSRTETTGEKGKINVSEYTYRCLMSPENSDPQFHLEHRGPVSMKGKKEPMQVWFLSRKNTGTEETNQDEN
T1 sequence (P19686 1-690 partner): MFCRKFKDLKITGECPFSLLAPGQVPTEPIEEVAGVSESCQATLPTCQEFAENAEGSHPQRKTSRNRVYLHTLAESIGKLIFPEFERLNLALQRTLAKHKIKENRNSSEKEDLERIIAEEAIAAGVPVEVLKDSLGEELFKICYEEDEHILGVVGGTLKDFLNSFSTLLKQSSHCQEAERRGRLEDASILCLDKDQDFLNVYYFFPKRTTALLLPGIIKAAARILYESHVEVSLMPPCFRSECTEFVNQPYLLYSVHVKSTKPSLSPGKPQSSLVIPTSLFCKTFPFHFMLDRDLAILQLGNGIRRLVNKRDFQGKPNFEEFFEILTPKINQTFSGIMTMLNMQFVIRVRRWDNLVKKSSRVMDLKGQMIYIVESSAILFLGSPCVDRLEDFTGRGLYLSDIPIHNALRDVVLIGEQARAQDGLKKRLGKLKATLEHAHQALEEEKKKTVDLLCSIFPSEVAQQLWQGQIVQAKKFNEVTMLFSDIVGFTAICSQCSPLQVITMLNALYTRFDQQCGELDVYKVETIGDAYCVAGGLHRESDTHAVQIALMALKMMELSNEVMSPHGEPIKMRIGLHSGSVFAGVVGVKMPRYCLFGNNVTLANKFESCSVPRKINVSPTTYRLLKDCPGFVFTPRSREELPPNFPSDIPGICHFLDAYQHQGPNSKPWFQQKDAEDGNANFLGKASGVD
Method: The cellular action of the compounds according to the invention is determined at a recombinant guanylate cyclase reporter cell line, as described in F. Wunder et al., Anal. Biochem. 339, 104-112 (2005).

[1] = molecular target: T2, soluble guanylate cyclase (sGC) (Rattus norvegicus, UniProt P20595); assay: Stimulation of sGC enzyme activity (PPi/luciferase detection); type: biochemical; details: sGC enzyme in vitro; for EC50: read-out: EC50 (concentration at 50% of maximum efficacy), activating action at the sGC enzyme
T2 construct: made in house; host or cells: baculovirus/Sf9 insect cells
T2 sequence (P20595 1-619): T1 sequence (P20595 1-619)
T2 sequence (P19686 1-690 partner): T1 sequence (P19686 1-690 partner)
Method: Soluble guanylate cyclase (sGC) converts on stimulation GTP into cGMP and pyrophosphate (PPi). PPi is detected with the aid of the assay described below. The signal produced in the assay increases as the reaction progresses and serves as a measure of the sGC enzyme activity under the given stimulation.
To carry out the assay, 29 μl of enzyme solution [0-10 nM soluble guanylate cyclase (prepared according to Honicka et al., J. Mol. Med. 77, 14-23 (1999)) in 50 mM TEA, 2 mM MgCl2, 0.1% BSA (fraction V), 0.005% Brij®, pH 7.5] are initially introduced into a microplate, and 1 μl of the substance to be tested (as a serially diluted solution in DMSO) is added. The mixture is incubated at room temperature for 10 min. Then 20 μl of detection mix [1.2 nM Firefly Luciferase (Photinus pyralis luciferase, Promega), 29 μM dehydroluciferin (prepared according to Bitler & McElroy, Arch. Biochem. Biophys. 72, 358 (1957)), 122 μM luciferin (Promega), 153 μM ATP (Sigma) and 0.4 mM DTT (Sigma) in 50 mM TEA, 2 mM MgCl2, 0.1% BSA (fraction V), 0.005% Brij®, pH 7.5] are added. The enzyme reaction is started by adding 20 μl of substrate solution [1.25 mM guanosine 5′-triphosphate (Sigma) in 50 mM TEA, 2 mM MgCl2, 0.1% BSA (fraction V), 0.005% Brij®, pH 7.5] and measured continuously in a luminometer. The extent of the stimulation by the substance to be tested can be determined relative to the signal of the unstimulated reaction.
The activation of heme-free guanylate cyclase is examined by addition of 25 μM of 1H-1,2,4-oxadiazolo[4,3-a]quinoxalin-1-one (ODQ) to the enzyme solution and subsequent incubation for 30 minutes and compared to the stimulation of the native enzyme.

Heme-containing sGC = molecular target: T3, Heme-containing sGC (Rattus norvegicus, UniProt P20595); assay: Stimulation of recombinant soluble guanylate cyclase in vitro, heme-containing enzyme; type: biochemical; details: 0 μM Example 1
T3 construct: made in house; host or cells: baculovirus/Sf9 insect cells
T3 sequence (P20595 1-619): T1 sequence (P20595 1-619)
T3 sequence (P19686 1-690 partner): T1 sequence (P19686 1-690 partner)
Text: Hoenicka, E. M. Becker, H. Apeler, T. Sirichoke, H. Schroeder, R. Gerzer and J.-P. Stasch, “Purified soluble guanylyl cyclase expressed in a baculovirus/Sf9 system: Stimulation by YC-1, nitric oxide, and carbon oxide”, J. Mol. Med. 77 (1999), 14-23. The heme-free guanylate cyclase is obtained by adding Tween 20 to the sample buffer (0.5% in the final concentration).
The activation of sGC by a test substance is reported as n-fold stimulation of the basal activity.

Row | Compound | MEC (minimum effective concentration), sGC-activating activity in the CHO reporter cell (sGC) | MEC (minimum effective concentration), activating action at the sGC enzyme [1] | EC50 [1] | other results
1 | CCC(C)C(C(=O)NCCCCC1(C(=O)O)CC1)c1ccc(CN2N=C(c3ccccc3)OCC2=O)cc1 (single isomer, unassigned; (+)) [Example 5, (+)-1-(4-{[3-methyl-2-{4-[(5-oxo-2-phenyl-5,6-dihydro-4H-1,3,4-oxadiazin-4-yl)methyl]phenyl}-pentanoyl]amino}butyl)cyclopropanecarboxylic acid] | 6.5 nM | 58 nM | 1500 nM | IC50 (saphenous artery): 297 nM
2 | CC(CCCCNC(=O)C(c1ccc(CN2N=C(c3ccccc3)OCC2=O)cc1)C1CCCC1)C(=O)O (single isomer, unassigned; (+)) [Example 10, (+)-6-{[2-cyclopentyl-2-{4-[(5-oxo-2-phenyl-5,6-dihydro-4H-1,3,4-oxadiazin-4-yl)methyl]phenyl}-acetyl]amino}-2-methylhexanoic acid] | 100 nM | – | – | –
3 | CC(CCCCNC(=O)C(c1ccc(CN2N=C(c3ccccc3)OCC2=O)cc1)C1CCCC1)C(=O)O (single isomer, unassigned; (+)) [Example 11, (+)-6-{[2-cyclopentyl-2-{4-[(5-oxo-2-phenyl-5,6-dihydro-4H-1,3,4-oxadiazin-4-yl)methyl]phenyl}-acetyl]amino}-2-methylhexanoic acid] | 100 nM | – | – | –
4 | O=C(NC/C=C/CC1(C(=O)O)CC1)C(c1ccc(CN2N=C(c3ccccc3)OCC2=O)cc1)C1CCCC1 (single isomer, unassigned; (-)) [Example 15] | 20 nM | – | – | –
5 | CCN(CC)[N+]([O-])=NO [DEA/NO, 2-(N,N-diethylamino)diazenolate 2-oxide, reference compound] | – | – | – | Stimulation (n-fold) of heme-containing sGC by DEA/NO alone (Heme-containing sGC; 0.1 μM DEA/NO): 22.2 n-fold
6 | O=C(O)CC1(CCCNC(=O)C(c2ccc(CN3N=C(c4ccccc4)OCC3=O)cc2)C2CCCC2)CC1 (stereo not drawn) [Example 18, (1-{3-[(Cyclopentyl{4-[(5-oxo-2-phenyl-5,6-dihydro-4H-1,3,4-oxadiazin-4-yl)methyl]phenyl}-acetyl)amino]propyl}cyclopropyl)acetic Acid] | 30 nM | – | – | –
7 | O=c1onc2cnc3ccccc3n12 [ODQ, 1H-1,2,4-oxadiazolo-(4,3a)-quinoxalin-1-one, reference compound] | – | – | – | Stimulation (n-fold) of heme-containing sGC by ODQ alone (Heme-containing sGC; 10 μM ODQ): 3.0 n-fold

Further lines, with some results ahead:

Row | MEC (minimum effective concentration), sGC-activating activity in the CHO reporter cell (sGC) | MEC (minimum effective concentration), activating action at the sGC enzyme [1] | EC50 [1] | Compound | other results
8 | 100 nM | – | – | O=C(O)CCCCCNC(=O)C(c1ccc(CN2N=C(c3ccccc3)OCC2=O)cc1)C1CCCC1 (stereo not drawn) [Example 19, 6-[(Cyclopentyl{4-[(5-oxo-2-phenyl-5,6-dihydro-4H-1,3,4-oxadiazin-4-yl)methyl]phenyl}acetyl)-amino]hexanoic Acid] | –
9 | 3 nM | 13 nM | 650 nM | O=C(NCCCCC1(C(=O)O)CC1)C(c1ccc(Cn2nc(-c3ccccc3)ccc2=O)cc1)C1CCCC1 (stereo not drawn) [Example 20] | IC50 (saphenous artery): 70 nM
10 | 1 nM | 5.5 nM | 184 nM | CC(C(C(=O)NCCCCC1(C(=O)O)CC1)c1ccc(CN2N=C(c3ccccc3)OCC2=O)cc1)C(F)(F)F (stereo not drawn) [Example 24, 1-{4-[(4,4,4-trifluoro-3-methyl-2-{4-[(5-oxo-2-phenyl-5,6-dihydro-4H-1,3,4-oxadiazin-4-yl)methyl]-phenyl}-butanoyl)amino]butyl}cyclopropanecarboxylic acid] | –
